Measurements reported in US6924300B2, “Oxyiminoalkanoic acid derivatives” (Takeda Chemical Industries, Ltd., priority 1998, dated 2005).

SMILES	melting point
CN(CCOc1ccc(CO/N=C(\C(=O)O)c2ccccc2)cc1)c1ccccn1 [Example 3, Z-2-[4-[2-(methyl-2-pyridylamino)ethoxy]benzyloxyimino]-2-phenylacetic acid]	93 to 94 °C
Cc1oc(-c2ccccc2)nc1COc1ccc(CO/N=C(\C(=O)O)c2cccc(Oc3ccccc3)c2)cc1 [Example 13, Z-2-[4-(5-methyl-2-phenyl-4-oxazolylmethoxy)benzyloxyimino]-2-(3-phenoxyphenyl)acetic acid]	173 to 174 °C (dec.)
Cc1oc(-c2ccccc2)nc1COc1ccc(CO/N=C(/C(=O)O)c2ccc(F)cc2)cc1 [Example 16, E-2-(4-fluorophenyl)-2-[4-(5-methyl-2-phenyl-4-oxazolylmethoxy)benzyloxyimino]acetic acid]	150 to 151 °C (dec.)
COc1ccc(/C(=N/OCc2ccc(OCc3nc(-c4ccccc4)oc3C)cc2)C(=O)O)cc1 [Example 24, Z-2-(4-methoxyphenyl)-2-[4-(5-methyl-2-phenyl-4-oxazolylmethoxy)benzyloxyimino]acetic acid]	183 to 184 °C
Cc1oc(-c2ccccc2)nc1COc1ccc(CO/N=C(\C(=O)O)c2ccc(/C=C/c3ccccc3)cc2)cc1 [Example 31, Z-2-[4-(5-methyl-2-phenyl-4-oxazolylmethoxy)benzyloxyimino]-2-[4-(E-2-phenylethenyl)phenyl]acetic acid]	194 to 195 °C (dec.)
O=C(O)CC/C(=N\OCc1ccc(OCc2csc(-c3ccccc3)n2)cc1)c1ccccc1 [Example 108, E-4-phenyl-4-[4-(2-phenyl-4-thiazolylmethoxy)benzyloxyimino]butyric acid]	104 to 105 °C
O=C(O)CC/C(=N\OCc1ccc(OCc2cc(-c3ccccc3)no2)cc1)c1ccccc1 [Example 87, E-4-phenyl-4-[4-(3-phenyl-5-isoxazolylmethoxy)benzyloxyimino]butyric acid]	96 to 97 °C
COc1cc(CO/N=C(\CCC(=O)O)c2ccccc2)ccc1OCc1nc(-c2ccccc2)oc1C [Example 150, E-4-[3-methoxy-4-(5-methyl-2-phenyl-4-oxazolylmethoxy)benzyloxyimino]-4-phenylbutyric acid]	134 to 135 °C
CCOC(=O)CC/C(=N\OCc1ccc(OCc2nc(-c3ccccc3)oc2C)cc1)c1ccc(Oc2ccccc2)cc1 [Example 46, ethyl E-4-[4-(5-methyl-2-phenyl-4-oxazolylmethoxy)benzyloxyimino]-4-(4-phenoxyphenyl)butyrate]	118 to 119 °C
CCOC(=O)/C(=N\OCc1ccc(OCc2nc(-c3ccccc3)oc2C)cc1)c1ccc(OC)cc1 [Example 19, ethyl Z-2-(4-methoxyphenyl)-2-[4-(5-methyl-2-phenyl-4-oxazolylmethoxy)benzyloxyimino]acetate]	102 to 103 °C
O=C(O)CC/C(=N\OCc1ccc(OCc2ccccc2)cc1)c1ccccc1 [Example 98, E-4-(4-benzyloxybenzyloxyimino)-4-phenylbutyric acid]	86 to 87 °C
COC(=O)CC/C(=N\OCc1ccc(OCc2nc(-c3ccccc3)oc2C)c(OC)c1)c1ccccc1 [Example 149, methyl E-4-[3-methoxy-4-(5-methyl-2-phenyl-4-oxazolylmethoxy)benzyloxyimino]-4-phenylbutyrate]	112 to 114 °C
Cc1oc(-c2ccccc2)nc1COc1ccc(CO/N=C(\C(=O)O)c2ccc(-c3ccsc3)cc2)cc1 [Example 30, Z-2-[4-(5-methyl-2-phenyl-4-oxazolylmethoxy)benzyloxyimino]-2-[4-(3-thienyl)phenyl]acetic acid]	205 to 206 °C (dec.)
Cc1oc(-c2ccccc2)nc1COc1ccc(CO/N=C2\CC(C(=O)O)c3ccccc32)cc1 (stereo not drawn) [Example 62, E-3-[4-(5-methyl-2-phenyl-4-oxazolylmethoxy)benzyloxyimino]-1-indancarboxylic acid]	148 to 149 °C
Cc1oc(-c2ccccc2)nc1COc1ccccc1CO/N=C(\CCC(=O)O)c1ccccc1 [Example 144, E-4-[2-(5-methyl-2-phenyl-4-oxazolylmethoxy)benzyloxyimino]-4-phenylbutyric acid]	116 to 117 °C
Cc1oc(-c2ccccc2)nc1COc1ccc(CO/N=C(\C(=O)O)c2cccc(C(=O)c3ccccc3)c2)cc1 [Example 40, Z-2-(3-benzoylphenyl)-2-[4-(5-methyl-2-phenyl-4-oxazolylmethoxy)benzyloxyimino]acetic acid]	185 to 186 °C (dec.)
Cc1oc(-c2ccccc2)nc1COc1ccc(CO/N=C(\C(=O)O)c2cccnc2)cc1 [Example 35, Z-2-[4-(5-methyl-2-phenyl-4-oxazolylmethoxy)benzyloxyimino]-2-(3-pyridyl)acetic acid]	156 to 157 °C (dec.)
O=C(O)CC/C(=N\OCc1ccc(OCc2cn3c(Cl)cccc3n2)cc1)c1ccccc1 [Example 55, E-4-[4-(5-chloroimidazo[1,2-a]pyridin-2-ylmethoxy)benzyloxyimino]-4-phenylbutyric acid]	160 to 161 °C

Other lines, results leading:

melting point	SMILES
129 to 130 °C	Cc1oc(-c2ccccc2)nc1COc1ccc(CO/N=C(\CCCC(=O)O)c2ccccc2)cc1 [Example 18, E-5-[4-(5-methyl-2-phenyl-4-oxazolylmethoxy)benzyloxyimino]-5-phenylpentanoic acid]
108 to 109 °C	Cc1oc(-c2ccccc2)nc1COc1cccc(CO/N=C(\CCC(=O)O)c2ccccc2)c1 [Example 77, E-4-[3-(5-methyl-2-phenyl-4-oxazolylmethoxy)benzyloxyimino]-4-phenylbutyric acid]
101 to 102 °C	Cc1oc(-c2ccccc2)nc1COc1ccc(CO/N=C(/CCCCC(=O)O)c2ccccc2)cc1 [Example 61, Z-6-[4-(5-methyl-2-phenyl-4-oxazolylmethoxy)benzyloxyimino]-6-phenylhexanoic acid]
67 to 68 °C	Cc1oc(-c2ccccc2)nc1COc1ccc(CO/N=C(\CCCCCCCC(=O)O)c2ccccc2)cc1 [Example 73, E-9-[4-(5-methyl-2-phenyl-4-oxazolylmethoxy)benzyloxyimino]-9-phenylnonanoic acid]
112 to 113 °C	Cc1oc(-c2ccccc2)nc1COc1ccc(CO/N=C(\CCCCC(=O)O)c2ccccc2)cc1 [Example 60, E-6-[4-(5-methyl-2-phenyl-4-oxazolylmethoxy)benzyloxyimino]-6-phenylhexanoic acid]
158 to 159 °C	Cc1oc(-c2ccccc2)nc1COc1ccc(CO/N=C(\CCC(=O)O)c2cccnc2)cc1 [Example 70, E-4-[4-(5-methyl-2-phenyl-4-oxazolylmethoxy)benzyloxyimino]-4-(3-pyridyl)butyric acid]
95 to 96 °C	Cc1oc(-c2ccccc2)nc1COc1ccc(CO/N=C(\CCCCC(N)=O)c2ccccc2)cc1 [Example 82, E-6-[4-(5-methyl-2-phenyl-4-oxazolylmethoxy)benzyloxyimino]-6-phenylhexanamide]
112 to 113 °C	Cc1oc(-c2ccco2)nc1COc1ccc(CO/N=C(\CCCCC(=O)O)c2ccccc2)cc1 [Example 132, E-6-[4-[2-(2-furyl)-5-methyl-4-oxazolylmethoxy]benzyloxyimino]-6-phenylhexanoic acid]
106 to 107 °C	Cc1oc(-c2ccccc2)nc1CCOc1ccc(CO/N=C(\CCC(=O)O)c2ccccc2)cc1 [Example 50, E-4-[4-[2-(5-methyl-2-phenyl-4-oxazolyl)ethoxy]benzyloxyimino]-4-phenylbutyric acid]
116 to 117 °C	Cc1oc(-c2ccccc2)nc1COc1ccc(CO/N=C(\CCC(=O)O)c2ccccn2)cc1 [Example 64, E-4-[4-(5-methyl-2-phenyl-4-oxazolylmethoxy)benzyloxyimino]-4-(2-pyridyl)butyric acid]
107 to 108 °C	Cc1oc(-c2ccccc2)nc1COc1ccc(CON=C(CC(=O)O)c2ccccc2)cc1 [Example 53, 3-[4-(5-methyl-2-phenyl-4-oxazolylmethoxy)benzyloxyimino]-3-phenylpropionic acid]
114 to 115 °C	Cc1oc(-c2ccccc2)nc1COc1cccc(CO/N=C(\CCCCC(=O)O)c2ccccc2)c1 [Example 76, E-6-[3-(5-methyl-2-phenyl-4-oxazolylmethoxy)benzyloxyimino]-6-phenylhexanoic acid]
130 to 132 °C	Cc1oc(-c2ccccc2)nc1COc1ccc(CO/N=C(\CCCCC(=O)NS(C)(=O)=O)c2ccccc2)cc1 [Example 142, E-N-methanesulfonyl-6-[4-(5-methyl-2-phenyl-4-oxazolylmethoxy)benzyloxyimino]-6-phenylhexanamide]
99 to 100 °C	Cc1sc(-c2ccccc2)nc1COc1ccc(CO/N=C(\CCC(=O)O)c2ccccc2)cc1 [Example 91, E-4-[4-(5-methyl-2-phenyl-4-thiazolylmethoxy)benzyloxyimino]-4-phenylbutyric acid]
73 to 74 °C	COC(=O)CC/C(=N\OCc1ccc(OCCc2nc(-c3ccccc3)oc2C)cc1)c1ccccc1 [Example 48, methyl E-4-[4-[2-(5-methyl-2-phenyl-4-oxazolyl)ethoxy]benzyloxyimino]-4-phenylbutyrate]
161 to 162 °C	Cc1oc(-c2ccccc2)nc1COc1ccc(CO/N=C(\CCC(=O)O)c2ccncc2)cc1 [Example 71, E-4-[4-(5-methyl-2-phenyl-4-oxazolylmethoxy)benzyloxyimino]-4-(4-pyridyl)butyric acid]
84 to 85 °C	Cc1oc(-c2ccccc2)nc1COc1ccc(CO/N=C(\CCCCCC(=O)O)c2ccccc2)cc1 [Example 115, E-7-[4-(5-methyl-2-phenyl-4-oxazolylmethoxy)benzyloxyimino]-7-phenylheptanoic acid]
54 to 57 °C	Cc1oc(-c2ccccc2)nc1COc1ccc(CO/N=C(/CCCCCCC(=O)O)c2ccc(Cl)cc2)cc1 [Example 124, Z-8-(4-chlorophenyl)-8-[4-(5-methyl-2-phenyl-4-oxazolylmethoxy)benzyloxyimino]octanoic acid]
